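The compound was tested at five concentrations on cells cultured in 96-well plates, with a 48-hour exposure period. GI50 marks 50% less growth. TGI: concentration producing complete growth inhibition.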
Key:
Assay in all cases: growth of human tumour cells (NCI), 48 h
A498 renal = system: A498 renal
UACC-62 melanoma = system: UACC-62 melanoma
SNB-75 CNS = system: SNB-75 CNS
SK-OV-3 ovarian = system: SK-OV-3 ovarian
OVCAR-3 ovarian = system: OVCAR-3 ovarian
SF-268 CNS = system: SF-268 CNS
SK-MEL-28 melanoma = system: SK-MEL-28 melanoma
K-562 leukemia = system: K-562 leukemia
NCI-H522 lung = system: NCI-H522 lung
SF-539 CNS = system: SF-539 CNS
NCI-H226 lung = system: NCI-H226 lung
786-0 renal = system: 786-0 renal
T-47D breast = system: T-47D breast
ACHN renal = system: ACHN renal
HL-60(TB) leukemia = system: HL-60(TB) leukemia
U251 CNS = system: U251 CNS
MOLT-4 leukemia = system: MOLT-4 leukemia
OVCAR-4 ovarian = system: OVCAR-4 ovarian
PC-3 prostate = system: PC-3 prostate
OVCAR-5 ovarian = system: OVCAR-5 ovarian
LOX IMVI melanoma = system: LOX IMVI melanoma
EKVX NSCLC = system: EKVX NSCLC
NCI/ADR-RES ovarian = system: NCI/ADR-RES ovarian
CCRF-CEM leukemia = system: CCRF-CEM leukemia
SF-295 CNS = system: SF-295 CNS
MCF7 breast = system: MCF7 breast
KM12 colon = system: KM12 colon
MDA-MB-231 breast = system: MDA-MB-231 breast
SK-MEL-2 melanoma = system: SK-MEL-2 melanoma
HCC-2998 colon = system: HCC-2998 colon

SMILES: Cc1cc(I)cc(CN(C)CCN2CCOCC2)c1O
- TGI (A498 renal): > 96.3 µM
- GI50 (UACC-62 melanoma): > 66.1 µM
- TGI (UACC-62 melanoma): > 100 µM
- GI50 (SNB-75 CNS): 53.5 µM
- TGI (SNB-75 CNS): > 100 µM
- GI50 (SK-OV-3 ovarian): > 100 µM
- TGI (SK-OV-3 ovarian): > 100 µM
- GI50 (OVCAR-3 ovarian): 49.9 µM
- TGI (OVCAR-3 ovarian): > 100 µM
- GI50 (SF-268 CNS): 59.5 µM
- TGI (SF-268 CNS): > 100 µM
- GI50 (SK-MEL-28 melanoma): > 78.1 µM
- TGI (SK-MEL-28 melanoma): > 100 µM
- GI50 (K-562 leukemia): 28.4 µM
- TGI (K-562 leukemia): > 100 µM
- GI50 (NCI-H522 lung): 79 µM
- TGI (NCI-H522 lung): > 100 µM
- GI50 (SF-539 CNS): > 100 µM
- TGI (SF-539 CNS): > 100 µM
- GI50 (NCI-H226 lung): > 76.9 µM
- TGI (NCI-H226 lung): > 100 µM
- GI50 (786-0 renal): > 100 µM
- TGI (786-0 renal): > 100 µM
- GI50 (T-47D breast): 27.5 µM
- TGI (T-47D breast): > 100 µM
- GI50 (ACHN renal): 60.2 µM
- TGI (ACHN renal): > 100 µM
- GI50 (HL-60(TB) leukemia): 25.8 µM
- TGI (HL-60(TB) leukemia): 66.6 µM
- GI50 (U251 CNS): 49.7 µM
- TGI (U251 CNS): > 100 µM
- GI50 (MOLT-4 leukemia): 35.7 µM
- TGI (MOLT-4 leukemia): > 100 µM
- GI50 (OVCAR-4 ovarian): 53.2 µM
- TGI (OVCAR-4 ovarian): > 100 µM
- GI50 (PC-3 prostate): 34.9 µM
- TGI (PC-3 prostate): > 100 µM
- GI50 (OVCAR-5 ovarian): > 100 µM
- TGI (OVCAR-5 ovarian): > 100 µM
- GI50 (LOX IMVI melanoma): 65 µM
- TGI (LOX IMVI melanoma): > 100 µM
- GI50 (EKVX NSCLC): 47.1 µM
- TGI (EKVX NSCLC): > 100 µM
- GI50 (NCI/ADR-RES ovarian): 59.8 µM
- TGI (NCI/ADR-RES ovarian): > 100 µM
- GI50 (CCRF-CEM leukemia): 0.87 µM
- GI50 (SF-295 CNS): 29.8 µM
- TGI (SF-295 CNS): > 82.3 µM
- GI50 (MCF7 breast): 44.1 µM
- TGI (MCF7 breast): > 100 µM
- GI50 (KM12 colon): 44.5 µM
- TGI (KM12 colon): > 100 µM
- GI50 (MDA-MB-231 breast): 97.9 µM
- TGI (MDA-MB-231 breast): > 100 µM
- GI50 (SK-MEL-2 melanoma): > 100 µM
- TGI (SK-MEL-2 melanoma): > 100 µM
- GI50 (HCC-2998 colon): > 80.8 µM
- TGI (HCC-2998 colon): > 100 µM

Reference: PubChem BioAssay (NCI)
